Assay results as given in EPA's ToxRefDB 2.

Assays:
dog [1] = conditions: Subchronic oral toxicity in nonrodent, beagle, Feed, dose end: 13 week, group: systemic
mouse [2] = conditions: Combined chronic toxicity/carcinogenicity, cd1, Oral, Feed, dose end: 95 week, group: systemic
rabbit [3] = conditions: Prenatal developmental toxicity study, new zealand white, Oral, Gavage/Intubation, dose end: 19 GD
rat [4] = conditions: Subchronic oral toxicity in rodents, sprague dawley, Feed, dose end: 13 week, group: systemic, systemic / hematology / leukocyte (wbc) count differential / leukocyte (wbc) + systemic / in life observation / body weight / body weight …
rat [5] = conditions: Combined chronic toxicity/carcinogenicity, sprague dawley, Oral, Feed, dose end: 104 week, group: systemic
rat [6] = conditions: Prenatal developmental toxicity study, sprague dawley, Oral, Gavage/Intubation, dose end: 15 GD
dog [7] = conditions: Chronic toxicity; beagle; Oral; Feed; dose end: 12 month; group: systemic; systemic / hematology / erythrocyte (rbc) count differential / erythrocyte (rbc) + systemic / hematology / hematocrit (hct) / hematocrit (…
mouse [8] = conditions: Prenatal developmental toxicity study; swiss albino; Oral; Gavage/Intubation; dose end: 15 GD; group: developmental; systemic / in life observation / body weight / fetal weight
mouse [9] = conditions: Carcinogenicity; cd1; Oral; Feed; dose end: 104 week; group: systemic; systemic / pathology gross / liver / mass + systemic / pathology gross / liver / nodule(s) + systemic / pathology microscopic / liver / …
rat [10] = conditions: Subchronic oral toxicity in rodents, other, Feed, dose end: 90 day, group: systemic
rat [11] = conditions: Combined chronic toxicity/carcinogenicity, other, Oral, Feed, dose end: 104 week, group: systemic
rat [12] = conditions: Prenatal developmental toxicity study, other, Oral, Gavage/Intubation, dose end: 16 GD
dog [13] = conditions: Chronic toxicity, beagle, Oral, Feed, dose end: 52 week, group: systemic
rat [14] = conditions: Combined chronic toxicity/carcinogenicity, other, Oral, Feed, dose end: 25 month, group: systemic
dog [15] = conditions: Subchronic oral toxicity in nonrodent, beagle, Feed, dose end: 13 week, group: systemic; remark: listed apart in the source
rat [16] = conditions: Multigenerational reproductive toxicity study, sprague dawley, Oral, Feed, dose end: 2 generation
rabbit [17] = conditions: Prenatal developmental toxicity study, new zealand white, Oral, Gavage/Intubation, dose end: 28 GD
[18] = systemic / clinical chemistry / alkaline phosphatase (alp/alk) / alkaline phosphatase (alp/alk) + systemic / clinical chemistry / aspartate …
[19] = systemic / organ weight / heart / absolute
[20] = systemic / in life observation / body weight / body weight + systemic / in life observation / body weight / body weight gain + systemic / in…
[21] = group: developmental, developmental / developmental malformation / other / other + systemic / in life observation / body weight / fetal weight + developmental / …
[22] = group: maternal, systemic / in life observation / body weight / body weight gain + systemic / in life observation / clinical signs / no feces + systemic / in…
[23] = group: maternal, systemic / in life observation / clinical signs / no feces + systemic / in life observation / clinical signs / soft stools
[24] = systemic / hematology / leukocyte (wbc) count differential / leukocyte (wbc) + systemic / pathology microscopic / liver / adenoma/carcinoma …
[25] = group: developmental, developmental / developmental malformation / bone / unossified
[26] = group: developmental, developmental / developmental malformation / bone / unossified + developmental / developmental malformation / bone / incomplete ossification…
[27] = group: maternal, systemic / in life observation / body weight / body weight + systemic / in life observation / body weight / body weight gain + systemic / in…
[28] = systemic / in life observation / body weight / body weight + systemic / in life observation / food consumption / food efficiency
[29] = systemic / in life observation / body weight / body weight + systemic / in life observation / food consumption / food efficiency + systemic…
[30] = group: developmental, developmental / developmental malformation / bone / misaligned + developmental / developmental malformation / kidney / absent renal papilla…
[31] = group: maternal, systemic / in life observation / body weight / body weight gain + systemic / in life observation / food consumption / food consumption + …
[32] = systemic / clinical chemistry / alkaline phosphatase (alp/alk) / alkaline phosphatase (alp/alk) + systemic / pathology microscopic / liver…
[33] = systemic / organ weight / liver / absolute
[34] = group: offspring, systemic / in life observation / body weight / offspring (pup) weight
[35] = group: parental, systemic / in life observation / body weight / body weight + systemic / in life observation / body weight / body weight gain
[36] = group: developmental, systemic / in life observation / body weight / fetal weight
[37] = group: maternal, reproductive / reproductive performance / aborted / aborted + systemic / in life observation / body weight / body weight gain + systemic / …

`CCNc1nc(Cl)nc(NCC)n1` [Simazine] gave an LOAEL (dog [1]; [18]) of 64.3 mg/kg/day, an NOAEL (dog [1]; [18]) of 8.2 mg/kg/day and an LEL (dog [1]; [19]) of 6.9 mg/kg/day. For the same compound, the NEL (dog [1]; [19]) was under 6.9 mg/kg/day, the LOAEL (mouse [2]; systemic / in life observation / body weight / body weight + systemic / in life observation / body weight / body weight gain) was 132 mg/kg/day and the LEL (mouse [2]; [20]) was 132 mg/kg/day. It also gave an NEL (mouse [2]; [20]) of 5.3 mg/kg/day, an NOAEL (mouse [2]; [20]) of 5.3 mg/kg/day and an LOAEL (rabbit [3]; group: developmental, developmental / developmental malformation / other / other + systemic / in life observation / body weight / fetal weight) of 200 mg/kg/day. For the same compound, the LEL (rabbit [3]; [21]) was 200 mg/kg/day, the NEL (rabbit [3]; [21]) was 75 mg/kg/day and the NOAEL (rabbit [3]; [21]) was 75 mg/kg/day. It also gave an LOAEL (rabbit [3]; [22]) of 75 mg/kg/day, an NOAEL (rabbit [3]; [22]) of 5 mg/kg/day and an LEL (rabbit [3]; [23]) of 5 mg/kg/day. The NEL (rabbit [3]; [23]) was under 5 mg/kg/day, the LEL (rat [4]) was 12.6 mg/kg/day and the LOAEL (rat [4]) was 12.6 mg/kg/day. For the same compound, the NEL (rat [4]) was under 12.6 mg/kg/day, the NOAEL (rat [4]) was under 12.6 mg/kg/day and the LOAEL (rat [5]; systemic / hematology / leukocyte (wbc) count differential / leukocyte (wbc)) was 4.17 mg/kg/day. For the same compound, the LEL (rat [5]; systemic / hematology / leukocyte (wbc) count differential / leukocyte (wbc) + systemic / in life observation / body weight / body weight …) was 4.17 mg/kg/day, the NEL (rat [5]; [24]) was 0.41 mg/kg/day and the NOAEL (rat [5]; [24]) was 0.41 mg/kg/day. It also gave an LEL (rat [6]; [25]) of 30 mg/kg/day, an NEL (rat [6]; [25]) of under 30 mg/kg/day and an LOAEL (rat [6]; [26]) of 300 mg/kg/day. For the same compound, the NOAEL (rat [6]; [26]) was 30 mg/kg/day, the LEL (rat [6]; [27]) was 300 mg/kg/day and the LOAEL (rat [6]; [27]) was 300 mg/kg/day. For the same compound, the NEL (rat [6]; [27]) was 30 mg/kg/day, the NOAEL (rat [6]; [27]) was 30 mg/kg/day and the LEL (dog [7]) was 3.64 mg/kg/day. The LOAEL (dog [7]) was 3.64 mg/kg/day, the NEL (dog [7]) was 0.76 mg/kg/day and the NOAEL (dog [7]) was 0.76 mg/kg/day.
`Nc1ccn([C@H]2CC[C@@H](CO)O2)c(=O)n1` [2',3'-Dideoxycytidine] was tested, and the LEL (mouse [8]) was 500 mg/kg/day, the LOAEL (mouse [8]) was over 500 mg/kg/day and the NEL (mouse [8]) was 200 mg/kg/day. It also gave an NOAEL (mouse [8]) of at least 500 mg/kg/day.
For `CN(C)c1nc(=O)n(C2CCCCC2)c(=O)n1C` [Hexazinone], the LEL (mouse [9]) was 366 mg/kg/day, the LOAEL (mouse [9]) was 366 mg/kg/day and the NEL (mouse [9]) was 28 mg/kg/day. It also gave an NOAEL (mouse [9]) of 28 mg/kg/day, an LOAEL (rat [10]; [28]) of 440 mg/kg/day and an LEL (rat [10]; [29]) of 440 mg/kg/day. For the same compound, the NEL (rat [10]; [29]) was 81 mg/kg/day, the NOAEL (rat [10]; [29]) was 81 mg/kg/day and the LOAEL (rat [11]; [28]) was 50 mg/kg/day. The LEL (rat [11]; [29]) was 50 mg/kg/day, the NEL (rat [11]; [29]) was 10 mg/kg/day and the NOAEL (rat [11]; [29]) was 10 mg/kg/day. For the same compound, the LEL (rat [12]; [30]) was 900 mg/kg/day, the LOAEL (rat [12]; [30]) was 900 mg/kg/day and the NEL (rat [12]; [30]) was 400 mg/kg/day. For the same compound, the NOAEL (rat [12]; [30]) was 400 mg/kg/day, the LOAEL (rat [12]; group: maternal, systemic / in life observation / body weight / body weight gain + systemic / in life observation / food consumption / food consumption) was 400 mg/kg/day and the LEL (rat [12]; [31]) was 400 mg/kg/day. It also gave an NEL (rat [12]; [31]) of 100 mg/kg/day, an NOAEL (rat [12]; [31]) of 100 mg/kg/day and an LOAEL (dog [13]; [32]) of 37.6 mg/kg/day. The NEL (dog [13]; [32]) was 4.97 mg/kg/day, the NOAEL (dog [13]; [32]) was 4.97 mg/kg/day and the LEL (dog [13]; systemic / pathology microscopic / liver / lesion(s) (nos) + systemic / pathology microscopic / liver / pigmentation) was 37.6 mg/kg/day. For the same compound, the LOAEL (rat [14]; [28]) was 53.4 mg/kg/day, the LEL (rat [14]; [29]) was 53.4 mg/kg/day and the NEL (rat [14]; [29]) was 10.2 mg/kg/day. It also gave an NOAEL (rat [14]; [29]) of 10.2 mg/kg/day, an LOAEL (dog [15]; systemic / clinical chemistry / alkaline phosphatase (alp/alk) / alkaline phosphatase (alp/alk) + systemic / in life observation / body …) of 122 mg/kg/day and an LEL (dog [15]; [33]) of 5.1 mg/kg/day. It also gave an NEL (dog [15]; [33]) of under 5.1 mg/kg/day, an NOAEL (dog [15]; systemic / organ weight / liver / absolute + systemic / clinical chemistry / alkaline phosphatase (alp/alk) / alkaline phosphatase (alp/alk…) of 25.9 mg/kg/day and an LEL (rat [16]; [34]) of 154 mg/kg/day. The LOAEL (rat [16]; [34]) was 180 mg/kg/day, the NEL (rat [16]; [34]) was 15.3 mg/kg/day and the NOAEL (rat [16]; [34]) was 17.7 mg/kg/day. The LEL (rat [16]; [35]) was 143 mg/kg/day, the LOAEL (rat [16]; [35]) was 143 mg/kg/day and the NEL (rat [16]; [35]) was 14.3 mg/kg/day. It also gave an NOAEL (rat [16]; [35]) of 14.3 mg/kg/day, an LEL (rabbit [17]; [36]) of 125 mg/kg/day and an LOAEL (rabbit [17]; [36]) of 125 mg/kg/day. The NEL (rabbit [17]; [36]) was 50 mg/kg/day, the NOAEL (rabbit [17]; [36]) was 50 mg/kg/day and the LEL (rabbit [17]; [37]) was 125 mg/kg/day. It also gave an LOAEL (rabbit [17]; [37]) of 125 mg/kg/day, an NEL (rabbit [17]; [37]) of 50 mg/kg/day and an NOAEL (rabbit [17]; [37]) of 50 mg/kg/day.
